Where “and” joins values, the source holds several entries; their conditions need not be identical. Equal values may be shown once.
Columns and labels:
TSCs = experiment: qPCR of terminal differentiation markers in TSCs with or without 100 mM sorbitol; assay type: cell-based, mouse; details: 0.5% O2, 7 days
Procedure: . TSCs were cultured in 0-20% O2 for 0-7 days±FGF4 as indicated, rapidly frozen, and assayed for free ATP (n=4). (FIG. 6B) At 7 days, FGF4 absence increased terminal differentiation markers 8-20 fold at 20% O2, but lower differentiation levels at 0.5% O2 were not increased by a sorbitol dose, which induces high levels of differentiation at 20% O2. TSCs were cultured for 7 days±FGF4 at 20% or 0.5% O2±100 mM sorbitol. mRNA was purified and reverse transcribed, then analyzed for relative amounts of 3 terminal differentiation markers that were normalized to housekeeping mRNAs. Triplicate experiments are shown, with mean±s.e.m. (error bars). […]. (FIG. 6D) Correspondingly, at 7 days, mitochondrial Δψm increased only at O2≥2% with FGF4 removal. TSCs were cultured for 7 days at 20% O2 (a,d), 2% O2 (b,e), or 0.5% O2 (c,f) with FGF4 (a-c) or without FGF4 (d-f) and stained with JC1. Micron bar in micrograph (a) indicates […]. Green fluorescence indicates monomeric stain and low membrane charge and red fluorescence indicates polymeric stain and high charge. For original color fluorescence figures see (Xie, Stem Cell Research, 13:478, 2014 (Xie, 2014)).
RNA isolation and quantitative reverse transcription-PCR (qRT-PCR). […] Briefly, DNase-treated total RNA was isolated following cDNA preparation using QuantiTect Reverse Transcription Kit […] (Qiagen). […]

MEK1/2 = experiment: phospho-MEK1/2 western blot in mESCs under 200 mM sorbitol; assay type: cell-based, mouse; details: returned to baseline by 20 min
Source text: FIG. 14. […] Blots are representative of triplicate experiments. Phospho-proteins and their loading controls are grouped between black lines.
Hyperosmotic activation of signaling enzymes. […] Zhong, 2010; Xie, 2011. After screening 21 signaling kinases in 11 subfamilies using 14 inhibitors, 5 kinases in the mitogen activated protein kinase (MAPK) and PI3K families were identified as producing differentiation-priming effects in hyperosmotic conditions. To determine the kinetics of activation of these five kinases in the described system, mESCs were treated with 200 mM sorbitol for 1 hr. Expression levels of the activated (i.e., phosphorylated) enzymes were assayed by western blot analysis (FIG. 14), including phospho-p38MAPK, phospho-JNK, phospho-MEK1/2, and phospho-AKT (the downstream effector of PI3K signaling). Activated p38MAPK was 1st detected at 10 min of stimulation; activation persisted throughout 1 hr of stimulation. Similarly, activated JNK was 1st detected at 20 min of stimulation, and persisted throughout 1 hr of stimulation. Activated MEK1/2 and activated AKT were present endogenously at low levels at time zero; sorbitol stimulated higher activation levels of each.

SAPK = details: 100 mM, 20% O2, despite FGF4; cited from earlier work
Rex1-RFP ESCs = experiment: Cell counts and doubling rate of Rex1-RFP ESCs at time zero and 3 days of sorbitol; assay type: cell-based, mouse; details: 72 hr; for Doubling Rate: 0 mM 32.7 hr; for Relative Cell# (Total #, OUTSIDE BOX): time zero = 100, 0 mM = 460
Source text: FIG. 28. Partial validation of the Theory of Compensatory Differentiation whereby stress decreases in size the normal levels of stem cell expansion and, in the nonmorbid stress range where doubling rates were near-normal, the diminished potency group that is enabled to differentiate is constant in size. […] A modified Venn diagram from previous modeling is presented here and analyzed with respect to supporting flow cytometry data for changes in potency subpopulation sizes derived from Table 8 and discussed in the text. For convenience, Table 8 is reproduced here:
Finally it was tested whether endogenous Rex1 protein levels decreased commensurately with decreases in Rex1-RFP activity levels assayed in FIG. 24. Rex1-RFP ESCs were cultured for 3 days with 0-300 mM sorbitol and assayed by immunoblot for endogenous Rex1 levels normalized to ACTB loading controls and with time zero unstressed Rex1 set to 100 as a baseline level. Whereas stress-induced decrease in Rex1 activity in FIG. 24 were 20% and 70% at 200 mM and 300 mM sorbitol, respectively endogenous Rex1 protein losses were 30% and 70% at 200 mM and 300 mM, respectively (FIG. 27). Through the series from 200 mM to 300 mM sorbitol there was generally good agreement between activity level and endogenous protein level for Rex1 at 3 days of stress and with Rex1 protein loss at 1 day (Example 2). To correlate stress-induced Rex1 potency loss with stress-induced diminished cell growth rates, cell counts were performed at time zero and at 3 days over the same sorbitol dose range as in FIG. 27 and FIG. 24 and FIGS. 26A & 26B. […]; see Brief Description of the Figures for Table 8).
The stress dose-dependent cell number of low potency cells can be determined by multiplying the fractional subpopulation size of cells with potency loss, which increases with stress and the decreasing cell numbers with increasing stress. This was done in Table 8 and compared with a previously published Venn diagram for compensatory differentiation (Puscheck, 2015, MB; Rappolee, 2013), modified to produce FIG. 28. In the stress-dose range where population size decreases, but increasing doubling rate is in a manageable range, the absolute size of the subpopulation of potency loss (intermediate and very low dim cells) is remarkably the same. At stress doses where very large doubling rate increases occur the subpopulation number with potency loss decreases, probably due to stem cell morbidity at these higher hyperosmotic stress levels (Example 2). Thus all three lines of evidence summarized here are consistent with the theory, but with limitations.

Structure (SMILES): OC[C@@H](O)[C@@H](O)[C@H](O)[C@@H](O)CO [sorbitol]
- mRNA expression of terminal differentiation markers PL1, Plf, synTa (TSCs): did not increase
- time of increased MEK1/2 activation (MEK1/2): ≤ 10 min
- SAPK increase (SAPK): 5 fold
- % Dim + Intermediate × Cell# (INSIDE BOX cell number) (Rex1-RFP ESCs; 200 mM): 9893
- Doubling Rate (Rex1-RFP ESCs; 200 mM): 34.1 h
- Relative Cell# (Total #, OUTSIDE BOX) (Rex1-RFP ESCs; 200 mM): 432
- % Dim + Intermediate × Cell# (INSIDE BOX cell number) (Rex1-RFP ESCs; 225 mM): 9930
- Doubling Rate (Rex1-RFP ESCs; 225 mM): 35.6 h
- Relative Cell# (Total #, OUTSIDE BOX) (Rex1-RFP ESCs; 225 mM): 407
- % Dim + Intermediate × Cell# (INSIDE BOX cell number) (Rex1-RFP ESCs; 250 mM): 9968
- Doubling Rate (Rex1-RFP ESCs; 250 mM): 39.3 h
- Relative Cell# (Total #, OUTSIDE BOX) (Rex1-RFP ESCs; 250 mM): 356
- % Dim + Intermediate × Cell# (INSIDE BOX cell number) (Rex1-RFP ESCs; 275 mM): 7418
- Doubling Rate (Rex1-RFP ESCs; 275 mM): 51.4 h
- % Dim + Intermediate × Cell# (INSIDE BOX cell number) (Rex1-RFP ESCs; 300 mM): 4540
- Doubling Rate (Rex1-RFP ESCs; 300 mM): 103.4 h
- Relative Cell# (Total #, OUTSIDE BOX) (Rex1-RFP ESCs; 300 mM): 161 and 162
- cell doubling rates (Rex1-RFP ESCs; 200-250 mM range): 34.1 to 39.3 h
- cell doubling rates (Rex1-RFP ESCs; 275-300 mM): 51.4 to 103.4 h
